From patent US10828315B2 (Madrigal Pharmaceuticals, Inc., priority 2013, dated 2020)
“Also recorded” adds a separate entry of the source.

Columns and labels:
[1] = Physical appearance of SDC-TRAP-0063 formulations and infusion solutions with different diluents and carbonate buffers; type: physicochemical
Description: First, a stock solution of SDC-TRAP-0063 was prepared in DMSO at 22 mg/mL, then the required amount of tween 80 was added and mixed well.
The above formulation containing SDC-TRAP-0063 was diluted using either D5W, D5W (pH 10.5, adjusted with 4.55 mM NaOH) or carbonate buffer, pH 10) (final drug concentration.: 1 mg/mL SDC-TRAP-0063, 1.8% v/v Tween 80, 5% v/v DMSO). The physical observations on these solutions were noted before and filtration through 0.22μ PES filter and were further observed for 3 hr. Refer to the table below for summary of observations. Note: Carbonate buffer, pH 10 was prepared by mixing 0.1M sodium carbonate (27.5 mL) and 0.1M sodium bicarbonate (22.5 mL) and qs 200 mL with DIW. The total Na content of carbonate buffer was 39 mM.
A stock solution of SDC-TRAP-0063 was prepared in either DMSO or PEG-300. To prepare formulations containing DMSO and tween 80, required amount of tween 80 added to the stock of DMSO (containing SDC-TRAP-0063). The formulations were then was diluted with carbonate buffer, pH 10 (composition: add and mix 0.1M sodium carbonate (27.5 mL) and 0.1M sodium bicarbonate (22.5 mL) and qs 200 mL with DIW). The samples (prepared in glass vial) were mixed well and observed for physical appearance while stirring on a magnetic stirring plate at ambient. (Note-appropriate amounts of SDC-TRAP-0063, tween 80, DMSO and PEG-300, as applicable were used to prepare the solutions at the desired concentrations and drug concentrations at 1 mg/mL through 5 mg/mL as shown).
Carbonate buffers of different pH (pH 9-10) and ionic strengths (with higher (>2) Na contents that SDC-TRAP-0063 on molar basis) were prepared and used for diluting the DMSO/tween 80 formulation loaded with SDC-TRAP-0063 (as described in earlier section 3). The final concentrations of DMSO and tween 80 in the diluted carbonate buffer were 5% v/v and 1.8% v/v respectively. The drug concentration was kept constant (5 mg/mL) for all diluted samples.

SK-OV-3 xenografts = experiment: Antitumor activity in SK-OV-3 ovarian cancer xenografts; type: in vivo, female Balb/c nude mice; conditions: SDC-TRAP-0063 200 mg/kg group; irinotecan alone and with ganetespib; 200 mg/kg
Description: This model is sensitive to HSP90 inhibition.
However, once the dosing is discontinued all but 200 mg/kg of SDC-TRAP-0063 dose group maintained tumor growth inhibition for a prolonged period of time.

CCc1c2c(nc3ccc(OC(=O)N4CCC(CCn5ccc6cc(-n7c(O)nnc7-c7cc(C(C)C)c(O)cc7O)ccc65)CC4)cc13)-c1cc3c(c(=O)n1C2)COC(=O)[C@]3(O)CC [SDC-TRAP-0063, 4,11-diethyl-4-hydroxy-3,14-dioxo-3,4,12,14-tetrahydro-1H-pyrano[3′,4′:6,7]indolizino[1,2-b]quinolin-9-yl 4-(2-(5-(3-(2,4-dihydroxy-5-isopropylphenyl)-5-hydroxy-4H-1,2,4-triazol-4-yl)-1H-indol-1-yl)ethyl)piperidine-1-carboxylate]
Observations (physical appearance) ([1]; 5% v/v DMSO, carbonate buffer pH 10 (39 mM Na), 1 mg/mL, 6 h): Cloudy
Observations (physical appearance) ([1]; 5% v/v DMSO, carbonate buffer pH 10 (39 mM Na), 1 mg/mL, Initial): Cloudy
Observations (physical appearance) ([1]; 5% v/v DMSO, carbonate buffer pH 10 (39 mM Na), 1 mg/mL, Overnight): Clear yellow solution
Observations (physical appearance) ([1]; 5% v/v DMSO, carbonate buffer pH 10 (39 mM Na), 2 mg/mL, 30 min): Cloudy
Observations (physical appearance) ([1]; 5% v/v DMSO, carbonate buffer pH 10 (39 mM Na), 2 mg/mL, 1 h): Cloudy
Observations (physical appearance) ([1]; 5% v/v DMSO, carbonate buffer pH 10 (39 mM Na), 2 mg/mL, 6 h): Cloudy
Observations (physical appearance) ([1]; 5% v/v DMSO, carbonate buffer pH 10 (39 mM Na), 2 mg/mL, Initial): Cloudy
Observations (physical appearance) ([1]; 5% v/v DMSO, carbonate buffer pH 10 (39 mM Na), 2 mg/mL, Overnight): Opaque (less cloudy than at 6 h)
Observations (physical appearance) ([1]; 5% v/v DMSO, carbonate buffer pH 10 (39 mM Na), 3 mg/mL, 30 min): Cloudy
Observations (physical appearance) ([1]; 5% v/v DMSO, carbonate buffer pH 10 (39 mM Na), 3 mg/mL, 1 h): Cloudy
Observations (physical appearance) ([1]; 5% v/v DMSO, carbonate buffer pH 10 (39 mM Na), 3 mg/mL, 6 h): Cloudy
Observations (physical appearance) ([1]; 5% v/v DMSO, carbonate buffer pH 10 (39 mM Na), 3 mg/mL, Initial): Cloudy
Observations (physical appearance) ([1]; 5% v/v DMSO, carbonate buffer pH 10 (39 mM Na), 3 mg/mL, Overnight): Cloudy
Observations (physical appearance) ([1]; 5% v/v DMSO, carbonate buffer pH 10 (39 mM Na), 4 mg/mL, 30 min): Cloudy
Observations (physical appearance) ([1]; 5% v/v DMSO, carbonate buffer pH 10 (39 mM Na), 4 mg/mL, 1 h): Cloudy
Observations (physical appearance) ([1]; 5% v/v DMSO, carbonate buffer pH 10 (39 mM Na), 4 mg/mL, 6 h): Cloudy
Observations (physical appearance) ([1]; 5% v/v DMSO, carbonate buffer pH 10 (39 mM Na), 4 mg/mL, Initial): Cloudy
Observations (physical appearance) ([1]; 5% v/v DMSO, carbonate buffer pH 10 (39 mM Na), 4 mg/mL, Overnight): Cloudy
Observations (physical appearance) ([1]; 5% v/v DMSO, carbonate buffer pH 10 (39 mM Na), 5 mg/mL, 30 min): Cloudy
Observations (physical appearance) ([1]; 5% v/v DMSO, carbonate buffer pH 10 (39 mM Na), 5 mg/mL, 1 h): Cloudy
Observations (physical appearance) ([1]; 5% v/v DMSO, carbonate buffer pH 10 (39 mM Na), 5 mg/mL, 6 h): Cloudy
Observations (physical appearance) ([1]; 5% v/v DMSO, carbonate buffer pH 10 (39 mM Na), 5 mg/mL, Initial): Cloudy
Observations (physical appearance) ([1]; 5% v/v DMSO, carbonate buffer pH 10 (39 mM Na), 5 mg/mL, Overnight): Cloudy
physical appearance after dilution with carbonate buffer, pH 10 ([1]; DMSO alone 5% v/v, 2 mg/mL through 5 mg/mL): stayed cloudy for more than 24 h
physical appearance after dilution with carbonate buffer, pH 10 ([1]; PEG-300 formulations, 1 mg/mL and 2 mg/mL): appeared clear at 30 mm and 1 hr of stirring respectively
physical appearance after dilution with carbonate buffer, pH 10 ([1]; PEG-300 formulations, 3 mg/mL, 4 mg/mL and 5 mg/mL): took longer and were clear next day
Observations (physical appearance) ([1]; […] v/v PEG-300, carbonate buffer pH 10 (39 mM Na), 1 mg/mL, 30 min): clear,
Observations (physical appearance) ([1]; […] v/v PEG-300, carbonate buffer pH 10 (39 mM Na), 1 mg/mL, 1 h): clear, yellow
Observations (physical appearance) ([1]; […] v/v PEG-300, carbonate buffer pH 10 (39 mM Na), 1 mg/mL, 2 h): clear, yellow
Observations (physical appearance) ([1]; […] v/v PEG-300, carbonate buffer pH 10 (39 mM Na), 1 mg/mL, Initial): slightly
Observations (physical appearance) ([1]; […] v/v PEG-300, carbonate buffer pH 10 (39 mM Na), 1 mg/mL, Overnight): clear, yellow
Observations (physical appearance) ([1]; […] v/v PEG-300, carbonate buffer pH 10 (39 mM Na), 2 mg/mL, 30 min): Translucent
Observations (physical appearance) ([1]; […] v/v PEG-300, carbonate buffer pH 10 (39 mM Na), 2 mg/mL, 1 h): clear, yellow
Observations (physical appearance) ([1]; […] v/v PEG-300, carbonate buffer pH 10 (39 mM Na), 2 mg/mL, 2 h): clear, yellow
Observations (physical appearance) ([1]; […] v/v PEG-300, carbonate buffer pH 10 (39 mM Na), 2 mg/mL, Initial): cloudy
Observations (physical appearance) ([1]; […] v/v PEG-300, carbonate buffer pH 10 (39 mM Na), 2 mg/mL, Overnight): clear, yellow
Observations (physical appearance) ([1]; […] v/v PEG-300, carbonate buffer pH 10 (39 mM Na), 3 mg/mL, 30 min): cloudy
Observations (physical appearance) ([1]; […] v/v PEG-300, carbonate buffer pH 10 (39 mM Na), 3 mg/mL, 1 h): cloudy
Observations (physical appearance) ([1]; […] v/v PEG-300, carbonate buffer pH 10 (39 mM Na), 3 mg/mL, 2 h): cloudy
Observations (physical appearance) ([1]; […] v/v PEG-300, carbonate buffer pH 10 (39 mM Na), 3 mg/mL, Initial): cloudy
Observations (physical appearance) ([1]; […] v/v PEG-300, carbonate buffer pH 10 (39 mM Na), 3 mg/mL, Overnight): clear, yellow
Observations (physical appearance) ([1]; […] v/v PEG-300, carbonate buffer pH 10 (39 mM Na), 4 mg/mL, 30 min): cloudy
Observations (physical appearance) ([1]; […] v/v PEG-300, carbonate buffer pH 10 (39 mM Na), 4 mg/mL, 1 h): cloudy
Observations (physical appearance) ([1]; […] v/v PEG-300, carbonate buffer pH 10 (39 mM Na), 4 mg/mL, 2 h): cloudy
Observations (physical appearance) ([1]; […] v/v PEG-300, carbonate buffer pH 10 (39 mM Na), 4 mg/mL, Initial): cloudy
Observations (physical appearance) ([1]; […] v/v PEG-300, carbonate buffer pH 10 (39 mM Na), 4 mg/mL, Overnight): clear, yellow
Observations (physical appearance) ([1]; […] v/v PEG-300, carbonate buffer pH 10 (39 mM Na), 5 mg/mL, 30 min): cloudy
Observations (physical appearance) ([1]; […] v/v PEG-300, carbonate buffer pH 10 (39 mM Na), 5 mg/mL, 1 h): cloudy
Observations (physical appearance) ([1]; […] v/v PEG-300, carbonate buffer pH 10 (39 mM Na), 5 mg/mL, 2 h): cloudy
Observations (physical appearance) ([1]; […] v/v PEG-300, carbonate buffer pH 10 (39 mM Na), 5 mg/mL, Initial): cloudy
Observations (physical appearance) ([1]; […] v/v PEG-300, carbonate buffer pH 10 (39 mM Na), 5 mg/mL, Overnight): clear, yellow
achievable drug concentration in solution ([1]; carbonate buffer pH about 10, high ionic strength, […] v/v tween 80 and 5% v/v DMSO): at least 5 mg/mL
time to clear solution ([1]; high ionic strength carbonate buffer at pH 9.5, 5 mg/mL): ≤ 3 h
physical appearance in lower pH carbonate buffers ([1]; pH 9.3 and pH 9.5, 5% v/v DMSO + […] v/v tween 80, 5 mg/mL): remain cloudy even after stirring overnight
antitumor activity in SK-OV-3 xenografts (FIG. 25) (SK-OV-3 xenografts): maintains the tumor growth inhibition for several weeks; also recorded: statistically significant inhibitory impact on the growth of SK-OV-3 xenografts
